pIC50: −log10 of the molar value. Like-named read-outs stand apart in the source and are kept apart here. Peptide text beside a SMILES is read from it. * marks the point of attachment. Hydrocinnamoyl = O=C(CCc1ccccc1)*; Tos = Cc1ccc(S(=O)(=O)*)cc1
Key:
thrombin = thrombin (Homo sapiens, UniProt P00734); test: Thrombin assay, chromogenic substrate Pefachrome t-PA; assay type: biochemical; conditions: purified human enzyme, 30 minute incubation, HBSA pH 7.5
Procedure: (§1) The buffer used for all assays was HBSA (10 mM HEPES, pH 7.5, 150 mM sodium chloride, 0.1% bovine serum albumin). […] Following a 30 minute incubation at ambient temperature, 50 μL of the substrate at the concentrations specified below, was added to the wells yielding a final total volume of 200 μL.
Thrombin catalytic activity was determined using the chromogenic substrate Pefachrome t-PA (CH3 SO2 -D-hexahydrotyrosine-glycyl-L-arginine-p-nitroaniline, obtained from Pentapharm Ltd.).

factor Xa = biological target: T1, factor Xa (Homo sapiens, UniProt P00742); test: Factor Xa assay, chromogenic substrate S2765; assay type: biochemical; conditions: purified human enzyme, 30 minute incubation, HBSA pH 7.5
T1 construct: Human factor Xa was prepared from purified human factor X obtained from Enzyme Research Laboratories; purchased Enzyme Research Laboratories
Procedure: as §1, with “μL. The initial velocity of chromogenic substrate hydrolysis was measured by the change in absorbance at 405 nm using a Thermo Max® Kinetic Microplate Reader over a 5 minute period in which less than 5% of the added substrate was utilized.” for “μL.”
Factor Xa catalytic activity was determined using the substrate, S2765 (N-α-benzyloxycarbonyl-D-argininyl-L-glycyl-L-arginine-p-nitroanilide dihydrochloride) which was obtained from Kabi Diagnostica. […] Human factor Xa was prepared from purified human factor X obtained from Enzyme Research Laboratories according to the method described by Bock, P. E. et al., Archives of Biochem. Biophys. 273: 375 (1989). The enzyme was diluted into HBSA prior to the assay in which the final concentration was 0.5 nM.

plasmin = plasmin (Homo sapiens, UniProt P00747); test: Plasmin assay, chromogenic substrate S-2251; assay type: biochemical; conditions: purified human enzyme, 30 minute incubation, HBSA pH 7.5
Procedure: as §1, with “μL. The initial velocity of chromogenic substrate hydrolysis was measured by the change in absorbance at 405 nm using a Thermo Max® Kinetic Microplate Reader over a 5 minute period in which less than 5% of the added substrate was utilized.” for “μL.”
Plasmin catalytic activity was determined using the chromogenic substrate, S-2251 [D-valyl-L-leucyl-L-lysine-p-nirtoanilide dihydrochloride], which was obtained from Kabi Diagnostica.

[1] = system: FeCl3 -induced platelet-dependent arterial thrombosis; assay type: in vivo; conditions: rat carotid artery
From the text: Res., 60: 269-280 (1990). […] Res., 60: 269-280 (1990). […] The animals were then euthanized.

[2] = Pharmacokinetics after oral and i.v. administration in dogs; assay type: in vivo, dog
Procedure: The pharmacodynamic and pharmacokinetic parameters of the compound of Example 34 (and same compound described in Example 91) were evaluated after oral administration in dogs. Adult beagle dogs (9-12 kg) were housed individually in standard cages, and were fed a standard certified commercial diet and tap water ad libitum. Dogs were given an oral dose of either 10 mg/kg or 20 mg/kg test compound, in 55 ml deionized water, via a gastric tube, followed by a water rinse. In a separate protocol, 5 mg/kg of test compound, in 5 ml 0.9% sodium chloride, were administered by fast bolus i.v. injection through an indwelling saphenous vein catheter. The same dogs were used for all doses and both routes of administration, with a one week wash out period between use of the dogs for the different doses and protocols. […]
(§2) The blood levels of test compound were measured by extracting the compound from plasma, separation by HPLC, and post-column derivatization with a fluorogenic functional group. The clotting time of blood was measured using an APTT assay, which measures the prolongation of the activated partial thromboplastin time (APTT) by the test compound. […]
The systemic bioavailability of the test compound administered by the oral route was calculated by comparing the AUC values (area under curve describing level of compound in blood over time) after i.v. and oral administration. […]

[3] = system: activated partial thromboplastin time (APTT); test: APTT clotting time of blood samples after oral dosing in dogs; assay type: in vivo, dog; conditions: both doses (10 and 20 mg/kg)
Procedure: The pharmacodynamic and pharmacokinetic parameters of the compound of Example 34 (and same compound described in Example 91) were evaluated after oral administration in dogs. Adult beagle dogs (9-12 kg) were housed individually in standard cages, and were fed a standard certified commercial diet and tap water ad libitum. Dogs were given an oral dose of either 10 mg/kg or 20 mg/kg test compound, in 55 ml deionized water, via a gastric tube, followed by a water rinse. In a separate protocol, 5 mg/kg of test compound, in 5 ml 0.9% sodium chloride, were administered by fast bolus i.v. injection through an indwelling saphenous vein catheter. The same dogs were used for all doses and both routes of administration, with a one week wash out period between use of the dogs for the different doses and protocols.
Blood samples were collected during the experimental period from the cephalic vein using sodium citrate (0.38% final concentration) as anticoagulant (nine volumes blood to one volume sodium citrate). […]
as §2

Sequence of plasmin (P00747 581-810 limits assumed): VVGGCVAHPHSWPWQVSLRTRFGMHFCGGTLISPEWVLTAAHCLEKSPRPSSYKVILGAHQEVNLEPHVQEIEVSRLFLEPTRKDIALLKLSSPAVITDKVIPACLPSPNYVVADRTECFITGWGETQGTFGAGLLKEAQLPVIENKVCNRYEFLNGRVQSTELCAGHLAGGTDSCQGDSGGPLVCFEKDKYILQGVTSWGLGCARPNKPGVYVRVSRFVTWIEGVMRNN
Sequence of plasmin (P00747 97-580 partner limits assumed): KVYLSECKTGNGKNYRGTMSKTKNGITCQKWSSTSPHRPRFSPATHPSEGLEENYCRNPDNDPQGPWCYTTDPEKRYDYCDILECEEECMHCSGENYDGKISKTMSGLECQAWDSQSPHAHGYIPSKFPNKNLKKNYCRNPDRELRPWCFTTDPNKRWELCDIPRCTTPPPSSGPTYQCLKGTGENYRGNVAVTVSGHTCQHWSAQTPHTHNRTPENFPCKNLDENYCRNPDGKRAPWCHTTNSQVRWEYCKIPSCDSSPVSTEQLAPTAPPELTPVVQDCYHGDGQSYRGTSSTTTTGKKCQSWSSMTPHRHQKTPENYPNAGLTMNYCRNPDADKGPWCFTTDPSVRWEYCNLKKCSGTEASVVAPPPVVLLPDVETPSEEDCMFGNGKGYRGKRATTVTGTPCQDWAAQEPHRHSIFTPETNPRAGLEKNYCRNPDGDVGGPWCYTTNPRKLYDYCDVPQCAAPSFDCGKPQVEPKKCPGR
T1 sequence (P00742 235-488 limits assumed): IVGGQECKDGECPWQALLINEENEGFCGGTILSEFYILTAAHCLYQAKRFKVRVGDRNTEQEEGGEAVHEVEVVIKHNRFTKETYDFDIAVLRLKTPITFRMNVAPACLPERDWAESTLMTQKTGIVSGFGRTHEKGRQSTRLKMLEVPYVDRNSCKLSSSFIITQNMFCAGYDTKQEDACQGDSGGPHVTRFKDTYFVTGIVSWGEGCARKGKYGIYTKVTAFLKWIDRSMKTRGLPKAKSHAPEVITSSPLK
T1 sequence (P00742 41-179 partner limits assumed): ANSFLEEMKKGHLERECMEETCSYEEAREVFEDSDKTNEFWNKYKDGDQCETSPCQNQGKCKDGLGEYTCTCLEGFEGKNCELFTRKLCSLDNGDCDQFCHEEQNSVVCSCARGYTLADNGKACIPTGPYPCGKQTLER

Compound	pIC50 (thrombin)	pIC50 (factor Xa)	pIC50 (plasmin)	other results
CCCCS(=O)(=O)N[C@@H](CC(=O)OC)C(=O)N1CCC[C@H]1C(=O)N[C@H](C=O)CCCNC(=N)N [n-BuSO2 -Asp(OCH3)-Pro-Arg-al, N-(butylsulfonyl)-L-aspartyl-(β-methyl ester)-L-prolyl-L-argininal]	8.43	7.82	6.60	–
CCCC(CCC)C(=O)N[C@@H](CC(=O)O)C(=O)N1CCC[C@H]1C(=O)N[C@H](C=O)CCCNC(=N)N [2PrPent-Asp-Pro-Arg-al, N-(2-propylpentanoyl)-L-aspartyl-L-prolyl-L-argininal]	–	–	6.60	–
COC(=O)C[C@H](NS(=O)(=O)c1ccc2ccccc2c1)C(=O)N1CCC[C@H]1C(=O)N[C@H](C=O)CCCNC(=N)N [2-NpSO2 -Asp(OCH3)-Pro-Arg-al, N-(2-naphthylsulfonyl)-L-aspartyl-(β-methyl ester)-L-prolyl-L-argininal]	9.21	8.37	6.97	–
N-phenylsulfonyl-L-aspartyl-(β-methyl ester)-L-prolyl-L-argininal [BzlSO2 -Asp(OCH3)-Pro-Arg-al]	8.30	7.52	–	–
N=C(N)NCCC[C@@H](C=O)NC(=O)[C@@H]1CCCN1C(=O)[C@H](CC(=O)O)NC(=O)CCc1ccccc1 [HCA-Asp-Pro-Arg-al, N-(3-phenylpropionyl)-L-aspartyl-L-prolyl-L-argininal] (Hydrocinnamoyl-Asp-Pro-Arg-aldehyde)	–	–	6.32	Incidence of Occlusion ([1]; Group1, 25 μg/kg/min i.v. infusion): 5/6; Incidence of Occlusion ([1]; Group2, 50 μg/kg/min i.v. infusion): 1/5; Incidence of Occlusion ([1]; Group3, 100 μg/kg/min i.v. infusion): 0/5
COC(=O)C[C@H](NS(=O)(=O)c1ccc(C)cc1)C(=O)N1CCC[C@H]1C(=O)N[C@H](C=O)CCCNC(=N)N [(4-MePh)SO2 -Asp(OCH3)-Pro-Arg-al, N-(4-methylphenylsulfonyl)-L-aspartyl-(β-methyl ester)-L-prolyl-L-argininal] (Tos-Asp(OMe)-Pro-Arg-aldehyde)	8.96	8.02	6.95	–
CC(C)CCC(=O)N[C@@H](CC(=O)O)C(=O)N1CCC[C@H]1C(=O)N[C@H](C=O)CCCNC(=N)N [4MeV-Asp-Pro-Arg-al, N-(4-methylpentanoyl)-L-aspartyl-L-prolyl-L-argininal]	–	–	6.40	–
CCCC(CCC)C(=O)N[C@@H](CC(=O)OC)C(=O)N1CCC[C@H]1C(=O)N[C@H](C=O)CCCNC(=N)N [2PrPent-Asp(OCH3)-Pro-Arg-al, N-(2-propylpentanoyl)-L-aspartyl-β-(methyl ester)-L-prolyl-L-argininal]	–	–	6.58	–
N=C(N)NCCC[C@@H](C=O)NC(=O)[C@@H]1CCCN1C(=O)[C@H](CC(=O)O)NC(=O)CCC1CCCCC1 [ChxPA-Asp-Pro-Arg-al, N-(3-cyclohexanepropionyl)-L-aspartyl-L-prolyl-L-argininal]	–	–	6.60	–
N=C(N)NCCC[C@@H](C=O)NC(=O)[C@@H]1CCCN1C(=O)[C@H](CC(=O)O)NC(=O)CC1CCCCC1 [ChxAc-Asp-Pro-Arg-al, N-(1-cyclohexylacetyl)-L-aspartyl-L-prolyl-L-argininal]	7.33	7.82	7.12	–
CCCC(CCC)C(=O)N[C@@H](CC(=O)OC)C(=O)N1CCC[C@H]1C(=O)N[C@H](C=O)CCCNC(=N)N.O=C(O)C(F)(F)F [Example 34, N-(2-propylpentanoyl)-L-aspartyl-beta-(methyl ester)-L-prolyl-L-argininal, trifluoroacetate salt]	–	–	–	time to maximum blood level of compound [2]: 45 to 60 min; duration of elevated APTT [3]: up to two hours; time to significant elevation of APTT [3]: 20 to 30 min
